Data reported in patent US20260001928A1 (CORTERIA PHARMACEUTICALS, priority 2022, published 2026).
pEC50: −log10 of the molar value. *1 amine or outer side, *2 acyl side, *3 side chain or, on linkers, in order; H or OH if unused. Where a SMILES comes first, the peptide text is derived from it. Side-chain parts run from the residue outwards. [ ]: non-standard residue; d: D form. The star is where a group is joined. C18 diacid = O=C(O)CCCCCCCCCCCCCCCCC(=O)*; C16 diacid = O=C(O)CCCCCCCCCCCCCCC(=O)*; γGlu = O=C(O)[C@H](CCC(=O)[*:2])N[*:1]; NMeI = CC[C@H](C)[C@H](NC)C(=O)O; αMeL = CC(C)C[C@](C)(N)C(=O)O; Aib = CC(C)(N)C(=O)O

What was measured:
human CRF2a receptor = biological target: T1, human CRF2a receptor (Homo sapiens, UniProt Q13324); test: Activity at human CRF2a receptor, cAMP functional assay in TeloHEAC cells; format: cell-based; settings: TeloHEAC cells stably expressing human CRF2a receptor, relative to urocortin 2 (100 nM = 100%)
T1 construct: expressed in transfected cells; host or cells: TeloHEAC cells
T1 sequence (Q13324 1-411): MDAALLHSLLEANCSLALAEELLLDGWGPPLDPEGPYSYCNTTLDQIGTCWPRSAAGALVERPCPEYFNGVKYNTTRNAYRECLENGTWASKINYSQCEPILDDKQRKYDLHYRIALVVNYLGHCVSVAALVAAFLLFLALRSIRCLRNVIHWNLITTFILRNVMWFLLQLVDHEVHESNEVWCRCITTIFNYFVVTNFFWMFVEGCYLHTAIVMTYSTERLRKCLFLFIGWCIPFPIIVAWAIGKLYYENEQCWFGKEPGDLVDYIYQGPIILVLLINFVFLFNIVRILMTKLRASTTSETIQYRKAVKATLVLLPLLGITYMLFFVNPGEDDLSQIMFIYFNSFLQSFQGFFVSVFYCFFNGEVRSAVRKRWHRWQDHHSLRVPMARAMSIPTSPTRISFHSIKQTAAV
Summary of the method: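 TeloHEAC cells stably expressing human CRF2a (10000 cells/well, suspended in HBSS/20 mM HEPES with 2 mM IBMX) were exposed to compounds for 30 min at 37 °C. cAMP was read as the 665/620 nm fluorescence ratio after 1 h at room temperature. EC50 was derived relative to 100 nM urocortin 2, set as 100%.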

CFR1R receptor = biological target: T2, CFR1R receptor (Homo sapiens, UniProt P34998); test: Activity at anti-target CFR1R receptor, cAMP assay in CRF1R-overexpression CHO-K1 cells; format: cell-based; settings: 100% = Sauvagine at 100 nM; for pEC50: cAMP
T2 construct: host or cells: CHO-K1 (clone 2)
T2 sequence (P34998 24-415): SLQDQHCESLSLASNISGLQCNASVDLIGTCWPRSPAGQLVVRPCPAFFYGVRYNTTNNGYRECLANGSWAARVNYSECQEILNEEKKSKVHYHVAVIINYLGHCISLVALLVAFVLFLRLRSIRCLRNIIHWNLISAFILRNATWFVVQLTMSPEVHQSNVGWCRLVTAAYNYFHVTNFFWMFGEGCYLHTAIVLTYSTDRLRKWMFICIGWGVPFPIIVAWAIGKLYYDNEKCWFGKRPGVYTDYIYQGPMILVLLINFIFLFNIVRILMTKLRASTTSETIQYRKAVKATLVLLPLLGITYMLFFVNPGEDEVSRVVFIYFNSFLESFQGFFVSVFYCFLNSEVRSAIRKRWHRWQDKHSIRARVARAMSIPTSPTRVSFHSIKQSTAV
Summary of the method: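 Signal is normalised to 100 nM Sauvagine, taken as 100% activation, in clone 2 cells plated at a final 4000 cells/well from frozen stocks.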

For CC[C@H](C)[C@H](N)C(=O)N[C@H](C(=O)N[C@@H](CC(C)C)C(=O)N[C@@H](CO)C(=O)N[C@@H](CC(C)C)C(=O)N[C@@H](CC(=O)O)C(=O)N[C@@H](C(=O)N1CCC[C@H]1C(=O)N[C@H](C(=O)N[C@@H](CCCCN)C(=O)N[C@@H](CC(C)C)C(=O)N[C@@H](CCCCNC(=O)CC[C@H](NC(=O)CCCCCCCCCCCCCCC(=O)O)C(=O)O)C(=O)N[C@@H](CCC(N)=O)C(=O)N[C@H](C(=O)N[C@@H](CC(C)C)C(=O)N[C@@H](CC(C)C)C(=O)N[C@@H](CCCCN)C(=O)N[C@@H](CCC(N)=O)C(=O)N[C@@H](CCC(=O)O)C(=O)N[C@@H](CCCNC(=N)N)C(=O)N[C@@H](CCC(N)=O)C(=O)N[C@@H](CCCCN)C(=O)N[C@@H](CCCCN)C(=O)N[C@@H](CCC(N)=O)C(=O)N[C@@H](CCCNC(=N)N)C(=O)N[C@@H](CCC(=O)O)C(=O)N[C@@H](CCC(N)=O)C(=O)N[C@@H](C)C(=O)N[C@@H](CCC(=O)O)C(=O)N[C@@H](CCCCN)C(=O)N[C@@H](CC(N)=O)C(=O)N[C@@H](CCCCN)C(=O)N[C@@H](CCC(N)=O)C(=O)N[C@H](C(=O)N[C@@H](CC(C)C)C(=O)N[C@@H](CCC(=O)O)C(=O)N[C@@H](CCC(N)=O)C(=O)N[C@H](C(N)=O)C(C)C)[C@@H](C)CC)[C@@H](C)CC)[C@@H](C)CC)C(C)C)C(C)C [compound 151] (H-IVLSLD[dV]PIKLK([γGlu-C16 diacid])QILLKQERQKKQREQAEKNKQILEQV-NH2), the pEC50 (human CRF2a receptor) was 9.92 and the “Emax (% I)” value (CFR1R receptor) was 53 % I.

For CC[C@H](C)[C@H](NC)C(=O)N[C@H](C(=O)N[C@@H](CC(C)C)C(=O)N[C@@H](CO)C(=O)N[C@@H](CC(C)C)C(=O)N[C@@H](CC(=O)O)C(=O)N[C@@H](C(=O)N1CCC[C@H]1C(=O)N[C@H](C(=O)N[C@@H](CCCCN)C(=O)N[C@@H](CC(C)C)C(=O)N[C@@H](CCCCNC(=O)CC[C@H](NC(=O)CCCCCCCCCCCCCCCCC(=O)O)C(=O)O)C(=O)N[C@@H](CCCCN)C(=O)N[C@H](C(=O)N[C@@H](CC(C)C)C(=O)N[C@@H](CC(C)C)C(=O)N[C@@H](CCC(=O)O)C(=O)N[C@@H](CCC(N)=O)C(=O)N[C@@H](CCC(=O)O)C(=O)N[C@@H](CCCCN)C(=O)N[C@@H](CCC(N)=O)C(=O)N[C@@H](CCCCN)C(=O)N[C@@H](CCCCN)C(=O)N[C@@H](CCC(N)=O)C(=O)N[C@@H](CCCNC(=N)N)C(=O)N[C@@H](CCC(=O)O)C(=O)N[C@@H](CCC(N)=O)C(=O)N[C@@H](C)C(=O)N[C@@H](CCC(=O)O)C(=O)N[C@H](C(=O)N[C@@H](CC(N)=O)C(=O)N[C@@H](CCC(=O)O)C(=O)N[C@@H](CCC(N)=O)C(=O)N[C@H](C(=O)N[C@@H](CC(C)C)C(=O)N[C@@H](C)C(=O)N[C@@H](CCC(N)=O)C(=O)N[C@H](C(N)=O)C(C)C)[C@@H](C)CC)[C@@H](C)O)[C@@H](C)CC)[C@@H](C)CC)C(C)C)C(C)C [compound 142] (H-[NMeI]VLSLD[dV]PIKLK([γGlu-C18 diacid])KILLEQEKQKKQREQAETNEQILAQV-NH2), the pEC50 (human CRF2a receptor) was 10.15, the “Emax (% I)” value (CFR1R receptor) was 3 % I and the pEC50 (CFR1R receptor) was < 6.60.

In the case of CC[C@H](C)[C@H](NC)C(=O)N[C@H](C(=O)N[C@@H](CC(C)C)C(=O)N[C@@H](CO)C(=O)N[C@@H](CC(C)C)C(=O)N[C@@H](CC(=O)O)C(=O)N[C@@H](C(=O)N1CCC[C@H]1C(=O)N[C@H](C(=O)N[C@@H](CCCCN)C(=O)N[C@@](C)(CC(C)C)C(=O)N[C@@H](CCCCNC(=O)CC[C@H](NC(=O)CCCCCCCCCCCCCCC(=O)O)C(=O)O)C(=O)N[C@@H](CCCCN)C(=O)N[C@H](C(=O)N[C@@H](CC(C)C)C(=O)N[C@@H](CC(C)C)C(=O)N[C@@H](CCC(=O)O)C(=O)N[C@@H](CCC(N)=O)C(=O)N[C@@H](CCC(=O)O)C(=O)N[C@@H](CCCCN)C(=O)N[C@@H](CCC(N)=O)C(=O)N[C@@H](CCCCN)C(=O)N[C@@H](CCCCN)C(=O)N[C@@H](CCC(N)=O)C(=O)N[C@@H](CCCNC(=N)N)C(=O)N[C@@H](CCC(=O)O)C(=O)N[C@@H](CCC(N)=O)C(=O)N[C@@H](C)C(=O)N[C@@H](CCC(=O)O)C(=O)N[C@H](C(=O)N[C@@H](CC(N)=O)C(=O)NC(C)(C)C(=O)N[C@@H](CCC(N)=O)C(=O)N[C@H](C(=O)N[C@@H](CC(C)C)C(=O)N[C@@H](C)C(=O)N[C@@H](CCC(N)=O)C(=O)N[C@H](C(N)=O)C(C)C)[C@@H](C)CC)[C@@H](C)O)[C@@H](C)CC)[C@@H](C)CC)C(C)C)C(C)C [compound 65] (H-[NMeI]VLSLD[dV]PIK[αMeL]K([γGlu-C16 diacid])KILLEQEKQKKQREQAETN[Aib]QILAQV-NH2), the pEC50 (human CRF2a receptor) was 10.00, the “Emax (% I)” value (CFR1R receptor) was 10 % I and the pEC50 (CFR1R receptor) was < 6.60.

For CC[C@H](C)[C@H](NC(=O)[C@H](CCC(N)=O)NC(=O)C(C)(C)NC(=O)[C@H](CC(N)=O)NC(=O)[C@@H](NC(=O)[C@H](CCC(=O)O)NC(=O)[C@H](C)NC(=O)[C@H](CCC(N)=O)NC(=O)[C@H](CCC(=O)O)NC(=O)[C@H](CCCNC(=N)N)NC(=O)[C@H](CCC(N)=O)NC(=O)[C@H](CCCCN)NC(=O)[C@H](CCCCN)NC(=O)[C@H](CCC(N)=O)NC(=O)[C@H](CCCCN)NC(=O)[C@H](CCC(=O)O)NC(=O)[C@H](CCC(N)=O)NC(=O)[C@H](CCC(=O)O)NC(=O)[C@H](CC(C)C)NC(=O)[C@H](CC(C)C)NC(=O)[C@@H](NC(=O)[C@H](CCCCN)NC(=O)[C@H](CCCCNC(=O)CC[C@H](NC(=O)CCCCCCCCCCCCCCC(=O)O)C(=O)O)NC(=O)[C@](C)(CC(C)C)NC(=O)[C@H](CCCCN)NC(=O)[C@@H](NC(=O)[C@@H]1CCCN1C(=O)[C@H](NC(=O)[C@H](CC(=O)O)NC(=O)[C@H](CC(C)C)NC(=O)[C@H](CO)NC(=O)[C@H](CC(C)C)NC(=O)[C@@H](NC(C)=O)C(C)C)C(C)C)[C@@H](C)CC)[C@@H](C)CC)[C@@H](C)O)C(=O)N[C@@H](CC(C)C)C(=O)N[C@@H](C)C(=O)N[C@@H](CCC(N)=O)C(=O)N[C@H](C(N)=O)C(C)C [compound 46] (Ac-VLSLD[dV]PIK[αMeL]K([γGlu-C16 diacid])KILLEQEKQKKQREQAETN[Aib]QILAQV-NH2), the pEC50 (human CRF2a receptor) was 9.15, the “Emax (% I)” value (CFR1R receptor) was 6 % I and the pEC50 (CFR1R receptor) was < 6.60.

In the case of CC[C@H](C)[C@H](NC)C(=O)N[C@H](C(=O)N[C@@H](CC(C)C)C(=O)N[C@@H](CO)C(=O)N[C@@H](CC(C)C)C(=O)N[C@@H](CC(=O)O)C(=O)N[C@@H](C(=O)N1CCC[C@H]1C(=O)N[C@H](C(=O)N[C@@H](CCCCN)C(=O)N[C@@H](CC(C)C)C(=O)N[C@@H](CCCCNC(=O)CC[C@H](NC(=O)CCCCCCCCCCCCCCC(=O)O)C(=O)O)C(=O)N[C@@H](CCCCN)C(=O)N[C@H](C(=O)N[C@@H](CC(C)C)C(=O)N[C@@H](CC(C)C)C(=O)N[C@@H](CCC(=O)O)C(=O)N[C@@H](CCC(N)=O)C(=O)N[C@@H](CCC(=O)O)C(=O)N[C@@H](CCCCN)C(=O)N[C@@H](CCC(N)=O)C(=O)N[C@@H](CCCCN)C(=O)N[C@@H](C)C(=O)N[C@@H](CCC(N)=O)C(=O)N[C@@H](CCCNC(=N)N)C(=O)N[C@@H](CCC(=O)O)C(=O)N[C@@H](CCC(N)=O)C(=O)N[C@@H](C)C(=O)N[C@@H](CCC(=O)O)C(=O)N[C@H](C(=O)N[C@@H](CC(N)=O)C(=O)NC(C)(C)C(=O)N[C@@H](CCC(N)=O)C(=O)N[C@H](C(=O)N[C@@H](CC(C)C)C(=O)N[C@@H](C)C(=O)N[C@@H](CCC(N)=O)C(=O)N[C@H](C(N)=O)C(C)C)[C@@H](C)CC)[C@@H](C)O)[C@@H](C)CC)[C@@H](C)CC)C(C)C)C(C)C [compound 74] (H-[NMeI]VLSLD[dV]PIKLK([γGlu-C16 diacid])KILLEQEKQKAQREQAETN[Aib]QILAQV-NH2), the pEC50 (human CRF2a receptor) was 9.82, the “Emax (% I)” value (CFR1R receptor) was 7 % I and the pEC50 (CFR1R receptor) was < 6.60.
